Laboratory results reported in PubChem BioAssay AID256 (DTP/NCI, 2004).
Values joined by “and” are separate entries in the source; they are usually repeats but may differ in a detail not shown here. Identical values can stand only once. Inconclusive results and toxic doses are left out. The calls were made as follows: active = survival T/C of 150% or more; inactive = T/C below 125% in these data.

Tested on: CD2F1 mice, L1210 leukemia ip, survival T/C
Test: NCI In Vivo Anticancer Drug Screen. Data for tumor model L1210 Leukemia (intraperitoneal) in CD2F1 (CDF1) mice
Conditions: higher = longer survival
In short: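 In this screen, transplantable tumors were grown in mice given either the compound or its vehicle. Results were expressed as the treated measurement relative to the control measurement.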

[1] = endpoint: mean survival time, dose: 25.0 mg/kg/injection, schedule: Q04DX002 (ip), vehicle: saline with Tween-80
[2] = endpoint: mean survival time, dose: 50.0 mg/kg/injection, schedule: Q04DX002 (ip), vehicle: saline with Tween-80
[3] = endpoint: mean survival time, dose: 100.0 mg/kg/injection, schedule: Q04DX002 (ip), vehicle: saline with Tween-80
[4] = endpoint: mean survival time, dose: 12.5 mg/kg/injection, schedule: Q04DX002 (ip), vehicle: saline with Tween-80
[5] = endpoint: mean survival time, dose: 100.0 mg/kg/injection, schedule: Q01DX009 (ip), vehicle: saline with Tween-80
[6] = endpoint: mean survival time, dose: 200.0 mg/kg/injection, schedule: Q01DX009 (ip), vehicle: saline with Tween-80
[7] = endpoint: mean survival time, dose: 400.0 mg/kg/injection, schedule: Q01DX009 (ip), vehicle: saline with Tween-80
[8] = endpoint: mean survival time, dose: 50.0 mg/kg/injection, schedule: Q01DX009 (ip), vehicle: saline with Tween-80
[9] = endpoint: mean survival time, dose: 100.0 mg/kg/injection, schedule: Q04DX002 (ip), vehicle: Klucel (hydroxypropylcellulose) (HPC)
[10] = endpoint: mean survival time, dose: 200.0 mg/kg/injection, schedule: Q04DX002 (ip), vehicle: Klucel (hydroxypropylcellulose) (HPC)

Measured: T/C

[Pd].[Pd].[S-]CC[S-].[S-]CC[S-].c1ccc([PH+](c2ccccc2)c2ccccc2)cc1.c1ccc([PH+](c2ccccc2)c2ccccc2)cc1
inactive: endpoint: mean survival time, dose: 3.13 mg/kg/injection, schedule: Q04DX003 (ip), vehicle: distilled water + Tween-80 106 % of control | endpoint: mean survival time, dose: 6.25 mg/kg/injection, schedule: Q04DX003 (ip), vehicle: distilled water + Tween-80 98 % of control | endpoint: mean survival time, dose: 12.5 mg/kg/injection, schedule: Q04DX003 (ip), vehicle: distilled water + Tween-80 95 % of control | endpoint: mean survival time, dose: 25.0 mg/kg/injection, schedule: Q04DX003 (ip), vehicle: distilled water + Tween-80 92 % of control | endpoint: mean survival time, dose: 50.0 mg/kg/injection, schedule: Q04DX003 (ip), vehicle: distilled water + Tween-80 95 % of control | endpoint: mean survival time, dose: 100.0 mg/kg/injection, schedule: Q04DX003 (ip), vehicle: distilled water + Tween-80 92 % of control | endpoint: mean survival time, dose: 200.0 mg/kg/injection, schedule: Q04DX003 (ip), vehicle: distilled water + Tween-80 93 % of control

O=C(O)C(=O)O.O=N[O-].O=N[O-].[Co+2].[NH2-].[NH2-]
inactive: [1] 93 % of control | [2] 117 % of control | [3] 98 % of control

CC(=O)CC(C)=O.CC(=O)CC(C)=O.[Pd]
inactive: endpoint: mean survival time, dose: 6.25 mg/kg/injection, schedule: Q04DX002 (ip), vehicle: saline with Tween-80 96 % of control | [4] 87 % of control

COC1=C2CCCC2=[N+]2CCCCC2C1 (stereo not drawn)
inactive: endpoint: mean survival time, dose: 100.0 mg/kg/injection, schedule: Q04DX003 (ip), vehicle: saline 96 % of control | endpoint: mean survival time, dose: 200.0 mg/kg/injection, schedule: Q04DX003 (ip), vehicle: saline 96 % of control

CCOc1cc(/C=N/NC(=O)C(O)c2ccccc2)ccc1O (stereo not drawn)
inactive: [5] 95 % of control | [6] 103 % of control | [7] 101 % of control

O=c1[nH]cnc2[nH]ncc12
inactive: endpoint: mean survival time, dose: 8.4 mg/kg/injection, schedule: Q04DX003 (ip), vehicle: saline with Tween-80 99 % of control | endpoint: mean survival time, dose: 14.0 mg/kg/injection, schedule: Q04DX003 (ip), vehicle: saline with Tween-80 103 % of control | endpoint: mean survival time, dose: 23.4 mg/kg/injection, schedule: Q04DX003 (ip), vehicle: saline with Tween-80 96 % of control | endpoint: mean survival time, dose: 39.0 mg/kg/injection, schedule: Q04DX003 (ip), vehicle: saline with Tween-80 101 % of control and 111 % of control | [8] 104 % of control | endpoint: mean survival time, dose: 60.0 mg/kg/injection, schedule: Q01DX006 (ip), vehicle: saline with Tween-80 97 % of control | endpoint: mean survival time, dose: 65.0 mg/kg/injection, schedule: Q04DX003 (ip), vehicle: saline with Tween-80 99 % of control and 104 % of control | [5] 106 % of control | endpoint: mean survival time, dose: 108.0 mg/kg/injection, schedule: Q04DX003 (ip), vehicle: saline with Tween-80 108 % of control and 111 % of control | endpoint: mean survival time, dose: 120.0 mg/kg/injection, schedule: Q01DX006 (ip), vehicle: saline with Tween-80 107 % of control | endpoint: mean survival time, dose: 180.0 mg/kg/injection, schedule: Q04DX003 (ip), vehicle: saline with Tween-80 106 % of control and 109 % of control | [6] 107 % of control | endpoint: mean survival time, dose: 300.0 mg/kg/injection, schedule: Q04DX003 (ip), vehicle: saline with Tween-80 104 % of control | endpoint: mean survival time, dose: 500.0 mg/kg/injection, schedule: Q04DX003 (ip), vehicle: saline with Tween-80 104 % of control | endpoint: mean survival time, dose: 833.0 mg/kg/injection, schedule: Q04DX003 (ip), vehicle: saline with Tween-80 97 % of control | endpoint: median survival time, dose: 12.5 mg/kg/injection, schedule: Q01DX009 (ip), vehicle: suspension in saline 101 % of control | endpoint: median survival time, dose: 25.0 mg/kg/injection, schedule: Q01DX009 (ip), vehicle: suspension in saline 103 % of control | endpoint: median survival time, dose: 50.0 mg/kg/injection, schedule: Q01DX009 (ip), vehicle: suspension in saline 100 % of control | endpoint: median survival time, dose: 100.0 mg/kg/injection, schedule: Q01DX009 (ip), vehicle: suspension in saline 101 % of control | endpoint: median survival time, dose: 200.0 mg/kg/injection, schedule: Q01DX009 (ip), vehicle: suspension in saline 107 % of control

CC(=O)Nc1ncc(CN2CCCCC2)s1
inactive: [9] 100 % of control | [10] 103 % of control

N#CCC(C#N)N1CCOCC1 (stereo not drawn)
inactive: endpoint: mean survival time, dose: 25.0 mg/kg/injection, schedule: Q01DX009 (ip), vehicle: saline with Tween-80 98 % of control | [8] 102 % of control | [5] 102 % of control

Nc1cc(C(=O)O)c(O)c(Cl)c1O
inactive: [4] 93 % of control | [1] 90 % of control | [2] 97 % of control

CC(C)(C)c1cccc(C(C)(C)C)c1O
inactive: endpoint: mean survival time, dose: 100.0 mg/kg/injection, schedule: Q01DX009 (ip), vehicle: saline 95 % of control | endpoint: mean survival time, dose: 200.0 mg/kg/injection, schedule: Q01DX009 (ip), vehicle: saline 94 % of control | endpoint: mean survival time, dose: 400.0 mg/kg/injection, schedule: Q01DX009 (ip), vehicle: saline 106 % of control

O=C(COc1ccc(Cl)cc1Cl)Nc1ccccc1
inactive: [3] 91 % of control | endpoint: mean survival time, dose: 200.0 mg/kg/injection, schedule: Q04DX002 (ip), vehicle: saline with Tween-80 95 % of control | endpoint: mean survival time, dose: 400.0 mg/kg/injection, schedule: Q04DX002 (ip), vehicle: saline with Tween-80 98 % of control

O=C(c1cccnc1)n1cc2c(n1)C1=C(CCCC1)CC2
inactive: endpoint: mean survival time, dose: 50.0 mg/kg/injection, schedule: Q01DX009 (ip), vehicle: Klucel (hydroxypropylcellulose) (HPC) 90 % of control | endpoint: mean survival time, dose: 100.0 mg/kg/injection, schedule: Q01DX009 (ip), vehicle: Klucel (hydroxypropylcellulose) (HPC) 105 % of control | endpoint: mean survival time, dose: 200.0 mg/kg/injection, schedule: Q01DX009 (ip), vehicle: Klucel (hydroxypropylcellulose) (HPC) 102 % of control

CCCCCCCCCCCCCCCC(=O)N(CCCN(C)C)c1ccc(N(CCCN(C)C)C(=O)CCCCCCCCCCCCCCC)cc1
inactive: endpoint: mean survival time, dose: 1.5 mg/kg/injection, schedule: Q01DX009 (ip), vehicle: saline sonified 98 % of control | endpoint: mean survival time, dose: 3.0 mg/kg/injection, schedule: Q01DX009 (ip), vehicle: saline sonified 101 % of control | endpoint: mean survival time, dose: 6.0 mg/kg/injection, schedule: Q01DX009 (ip), vehicle: saline sonified 98 % of control

Cc1ccc([N+](=O)[O-])cc1NC(=O)Oc1ccc2c(C)cc(=O)oc2c1
inactive: [9] 92 % of control | [10] 100 % of control | endpoint: mean survival time, dose: 400.0 mg/kg/injection, schedule: Q04DX002 (ip), vehicle: Klucel (hydroxypropylcellulose) (HPC) 87 % of control

COc1cc(-c2cc(OC)c(O)c(OC)c2)cc(OC)c1O
inactive: endpoint: mean survival time, dose: 100.0 mg/kg/injection, schedule: Q01DX001 (ip), vehicle: saline with Tween-80 96 % of control | endpoint: mean survival time, dose: 200.0 mg/kg/injection, schedule: Q01DX001 (ip), vehicle: saline with Tween-80 101 % of control | endpoint: mean survival time, dose: 400.0 mg/kg/injection, schedule: Q01DX001 (ip), vehicle: saline with Tween-80 90 % of control

COC(=O)C(CSC(c1ccccc1)(c1ccccc1)c1ccccc1)NC(=O)CCNC(=O)OCc1ccccc1 (stereo not drawn)
inactive: endpoint: mean survival time, dose: 12.5 mg/kg/injection, schedule: Q01DX009 (ip), vehicle: water 93 % of control | endpoint: mean survival time, dose: 25.0 mg/kg/injection, schedule: Q01DX009 (ip), vehicle: water 91 % of control | endpoint: mean survival time, dose: 50.0 mg/kg/injection, schedule: Q01DX009 (ip), vehicle: water 90 % of control | endpoint: mean survival time, dose: 100.0 mg/kg/injection, schedule: Q01DX009 (ip), vehicle: water 90 % of control

O=N/N=c1/c2[nH]cnc2ncn1O
inactive: endpoint: mean survival time, dose: 12.5 mg/kg/injection, schedule: Q01DX005 (ip), vehicle: distilled water + Tween-80 110 % of control | endpoint: mean survival time, dose: 25.0 mg/kg/injection, schedule: Q01DX005 (ip), vehicle: distilled water + Tween-80 93 % of control | endpoint: mean survival time, dose: 50.0 mg/kg/injection, schedule: Q01DX005 (ip), vehicle: distilled water + Tween-80 89 % of control | endpoint: mean survival time, dose: 100.0 mg/kg/injection, schedule: Q01DX005 (ip), vehicle: distilled water + Tween-80 88 % of control | endpoint: mean survival time, dose: 200.0 mg/kg/injection, schedule: Q01DX005 (ip), vehicle: distilled water + Tween-80 93 % of control

CC(NC(=O)C(CSC(c1ccccc1)(c1ccccc1)c1ccccc1)NC(c1ccccc1)(c1ccccc1)c1ccccc1)C(=O)O (stereo not drawn)
inactive: endpoint: mean survival time, dose: 150.0 mg/kg/injection, schedule: Q01DX001 (ip), vehicle: saline 96 % of control

CCOC(=O)c1c(Cl)nc2ccccc2c1Cl
inactive: [8] 105 % of control | [5] 105 % of control | [6] 94 % of control

O=Nc1cc(S(=O)(=O)O)c2ccccc2c1O
inactive: [5] 90 % of control | endpoint: mean survival time, dose: 100.0 mg/kg/injection, schedule: Q04DX003 (ip), vehicle: saline with Tween-80 97 % of control | [6] 88 % of control and 109 % of control | [7] 95 % of control | endpoint: mean survival time, dose: 400.0 mg/kg/injection, schedule: Q04DX003 (ip), vehicle: saline with Tween-80 97 % of control

CCOC(=O)N1CCN(c2ccc(Cl)cc2)CC1
inactive: endpoint: mean survival time, dose: 100.0 mg/kg/injection, schedule: Q04DX003 (ip), vehicle: Klucel (hydroxypropylcellulose) (HPC) 93 % of control | endpoint: mean survival time, dose: 200.0 mg/kg/injection, schedule: Q04DX003 (ip), vehicle: Klucel (hydroxypropylcellulose) (HPC) 91 % of control
